{
  "source": "patent US20230127345A1",
  "about": "“SELENOGALACTOSIDE COMPOUNDS FOR THE PREVENTION AND TREATMENT OF DISEASES ASSOCIATED WITH GALECTIN AND THE USE THEREOF” (GALECTIN SCIENCES, LLC, priority 2016, published 2023)",
  "key": {"Galectin-3 [1]": {"system": "Galectin-3", "experiment": "Galectin-3 expression in TGFb1 stimulated LX-2 stellate cells, flow cytometry", "type": "cell-based", "conditions": "TGFb1, 5 days serum starved stimulated LX-2 cells", "description": "TGFb1 stimulates hepatic stellate cells into the fibrogenesis pathway leading to secretion of collagen and other fibrosis biomarkers. […] While it is known that lactose has binding affinity to Gal-3, galactose lacks this affinity. […] The result confirmed this hypothesis."}, "Galectin-3 [2]": {"target": "T1, Galectin-3 (Homo sapiens, UniProt P17931)", "experiment": "ELISA of Galectin-3 binding inhibition (anti-Galectin-3 antibodies)", "description": "(§1) Experiments have been performed to evaluate the physical interaction of galectin proteins with these various biological ligands mediating cellular functions."}, "MCP-1": {"system": "MCP-1", "experiment": "In-vitro inflammatory model, MCP-1 in endotoxin stressed THP-1 monocytes", "type": "cell-based", "conditions": "THP-1 stimulated with endotoxin for 5 days", "experimental": "A model of macrophage polarization was set up, starting from THP-1 monocytes culture which is differentiated into inflammatory macrophages using PMA (Phorbol 12-myristate 13-acetate) for 2-4 days. Once differentiated (MO macrophages), the macrophages were induced with LPS or LPS and IFN-gamma for macrophage activation (M1) to inflammatory stage for 1-3 days. Array of cytokines and chemokines were analyzed to confirm the polarization of THP-1-derived macrophages to inflammatory stage. The impact of the anti-galectin 3 compounds on macrophage polarization was assessed first by monitoring cell viability using a colorimetric method (using a tetrazolium reagent) to determine the number of viable cells in proliferation or cytotoxicity assays (Promega, The CellTiter 96® AQueous One Solution Cell Proliferation Assay which contains a novel tetrazolium compound [3-(4,5-[…])-5-(3-carboxymethoxyphenyl)-2-(4-sulfophenyl)-2H-tetrazolium, inner salt; MTS] and an electron coupling reagent (phenazine ethosulfate; PES)) and inflammatory stage evaluated by a quantitatively measure of the chemokine Monocyte Chemoattractant Protein-1 (MCP-1/CCL2), a key protein that regulates migration and infiltration of monocytes/macrophages in cellular process of inflammation. Follow-up testing for the expression and secretion of other cytokines and chemokines were done for leading active compounds. […]"}, "[3]": {"target": "Gal-3/integrins (αVβ3, αVβ6, αMβ2) (Homo sapiens, UniProt P17931)", "sequence (P17931 2-250 limits assumed)": "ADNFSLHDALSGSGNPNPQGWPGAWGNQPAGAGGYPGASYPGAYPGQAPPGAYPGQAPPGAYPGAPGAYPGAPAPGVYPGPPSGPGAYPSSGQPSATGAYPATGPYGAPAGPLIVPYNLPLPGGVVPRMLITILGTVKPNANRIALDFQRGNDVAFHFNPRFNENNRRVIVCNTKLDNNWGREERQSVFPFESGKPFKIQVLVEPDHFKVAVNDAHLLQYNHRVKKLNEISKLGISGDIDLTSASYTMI", "experiment": "gal-3/integrin interaction ELISA assay", "type": "biochemical", "conditions": "compared with TD-139 (G240); FIG. 10, 11A-11C", "description": "as §1"}, "Galectin-3 [4]": {"target": "T1, Galectin-3", "experiment": "Fluorescent polarization assay with fluorescent ligand", "type": "binding", "conditions": "for inhibition of Galectin-3 CRD specific fluorescent-ligand: Fluorescent polarization, inhibition curves"}, "[5]": {"target": "Galectin-9 and integrin aMB2 (Homo sapiens, UniProt O00182)", "sequence (O00182 whole entry, species assumed)": "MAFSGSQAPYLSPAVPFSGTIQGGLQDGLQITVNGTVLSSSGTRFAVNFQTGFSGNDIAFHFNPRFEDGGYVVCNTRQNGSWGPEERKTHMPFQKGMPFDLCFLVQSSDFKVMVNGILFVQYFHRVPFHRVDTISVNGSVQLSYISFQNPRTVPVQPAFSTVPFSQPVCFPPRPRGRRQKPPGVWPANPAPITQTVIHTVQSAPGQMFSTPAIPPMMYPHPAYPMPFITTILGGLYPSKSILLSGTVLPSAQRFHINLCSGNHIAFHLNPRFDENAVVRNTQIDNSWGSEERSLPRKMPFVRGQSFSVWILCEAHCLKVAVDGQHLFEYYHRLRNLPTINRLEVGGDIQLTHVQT", "experiment": "ELISA format with pairs of galectins and integrins", "type": "biochemical", "conditions": "FIG. 15"}, "MCF-7 cells": {"system": "MCF-7 cells", "experiment": "Cell culture viability, MCF-7", "type": "cell-based", "conditions": "MCF-7, exposed over 3 days in standard growth media", "experimental": "Procedure for MCF-7 Cells ([…]) was as follow:\n1. MCF-7 cells were resuspended in culture media containing 4× Pen/Strep and 0.25% Fetal Bovine Serum (Gibco lot# 1202161). 2. 100 ul media was added with approximately 4,000-10,000 cells/well, passage # 5 up to 30) and cells were incubated for at least 24 hrs at 37° C. 3. Tested compound was diluted serially in assay media as above, usually at a range of 100 μg/ml to 20 ng/mL 4. […] serial diluted compound was added in duplicate to cells in assay plate. Final volume of each well was […], (containing 2× Pen/Strep, 0.25% FBS and compound as indicated 5. Cells were incubated 60-80 hours at 37° C. 6. […] of Promega Substrate [CellTiter 96 Aqueous One Solution] Reagent was added to each well. 7. Cells were incubated 37° C. for 4-8 hrs and read OD at 490 nm.\n(§2) Cells were exposed to the G-625 over 3 days in standard growth media."}, "HTB-38 cells": {"system": "HTB-38 cells", "experiment": "Cell culture viability, HTB-38", "type": "cell-based", "conditions": "HTB-38, exposed over 3 days in standard growth media", "experimental": "Procedure for HTB-38 Cells ([…]) was as follow:\n1. HTB-38 cells were resuspended in culture media containing 8 ng/ml h-IFN-gamma, 4× Pen/Strep and 10% Fetal Bovine Serum (Gibco lot# 1260930). 2. Cells were transferred at 100μl/well in assay plate (4,000-10,000 cells/well, passage# 4-30). 3. Tested compound was diluted serially in assay media as above, usually in range of 100 μg/ml to 20 ng/mL 4. 100 μl/well serial diluted compound was added in duplicate to cells. Final volume of each well was 200 μl, containing 4 ng/ml h-IFN-gamma, 2× Pen/Strep, 5. Cells were Incubate 60-90 hours at 37° C. 6. 20 μl of Promega Substrate [CellTiter 96 Aqueous One Solution] Reagent was added to each well. 7. Cells were incubated at 37° C. for 4-8 hrs and read OD at 490 nm.\nas §2"}, "[6]": {"target": "Galectin 1 and integrin aBV6 (Homo sapiens, UniProt P09382)", "sequence (P09382 whole entry, species assumed)": "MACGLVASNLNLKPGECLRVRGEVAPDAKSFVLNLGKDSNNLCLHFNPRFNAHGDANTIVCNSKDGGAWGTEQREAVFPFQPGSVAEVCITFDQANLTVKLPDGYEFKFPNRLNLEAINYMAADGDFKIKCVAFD", "experiment": "ELISA format with pairs of galectins and integrins", "type": "biochemical", "conditions": "FIG. 15"}, "Galectin-3 [7]": {"target": "T1, Galectin-3", "conditions": "cited from earlier work"}, "[8]": {"conditions": "pulmonary administration; cited from earlier work"}, "[9]": {"target": "gal-3 with Integrin (aMB2) (Homo sapiens, UniProt P17931)", "sequence (P17931 whole entry)": "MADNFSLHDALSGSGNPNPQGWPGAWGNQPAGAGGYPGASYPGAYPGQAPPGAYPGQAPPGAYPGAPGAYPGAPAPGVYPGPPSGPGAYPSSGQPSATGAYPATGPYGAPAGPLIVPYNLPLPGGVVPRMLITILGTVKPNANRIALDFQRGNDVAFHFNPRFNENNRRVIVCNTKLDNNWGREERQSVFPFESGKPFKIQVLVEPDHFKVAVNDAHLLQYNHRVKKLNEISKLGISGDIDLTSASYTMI", "experiment": "gal-3/integrin interaction ELISA, Integrin (aMB2)", "type": "biochemical", "conditions": "FIG. 11D and 11E"}},
  "data": [
    {"smiles": "O=C[C@H](O)[C@@H](O)[C@@H](O)[C@H](O)CO", "note": "[Galactose, reference compound]", "values": [
      {"measurement": "galectin-3 expression", "setting": "Galectin-3 [1]", "result": "should not have any effect"}
    ]},
    {"smiles": "OC[C@H]1O[C@@H]([Se][C@@H]2O[C@H](CO)[C@H](O)[C@H](n3cc(-c4cccc(F)c4)nn3)[C@H]2O)[C@H](O)[C@@H](n2cc(-c3cccc(F)c3)nn2)[C@H]1O", "note": "[G-625, beta-D-Galactopyranoside, 3-deoxy-3-(4-(3-fluorophenyl)-1H-1,2,3-triazol-1-yl)-beta-D-galactopyranosyl 3-deoxy-3-(4-(3-fluorophenyl)-1H-1,2,3-triazol-1-yl)-1-seleno-]", "values": [
      {"measurement": "IC50", "setting": "Galectin-3 [2]", "result": 14.4, "unit": "nM"},
      {"measurement": "secretion of MCP-1", "setting": "MCP-1", "result": "inhibitory effect on the inflammatory stage by reducing the secretion of MCP-1"},
      {"measurement": "galectin-3 expression", "setting": "Galectin-3 [1]", "result": "enhanced activity of G-625 versus G-240"},
      {"measurement": "galectin-3 expression", "setting": "Galectin-3 [1]; listed as G625", "result": "inhibition of galectin-3 expression"},
      {"measurement": "inhibition of Gal-3/integrins", "setting": "[3]", "result": "more potent inhibitor of Gal-3/integrins than TD-139 (G240)"},
      {"measurement": "IC50", "setting": "Galectin-3 [4]", "result": 259, "unit": "nM"},
      {"measurement": "inhibition of Galectin-3 CRD specific fluorescent-ligand", "setting": "Galectin-3 [4]", "result": "twice better inhibitor then G-240 (TD-139)"},
      {"measurement": "inhibition of interaction between Galectin-9 and integrin aMB2", "setting": "[5]", "result": "significantly inhibited"},
      {"measurement": "cytotoxicity (cell culture viability)", "setting": "MCF-7 cells", "result": "no cytotoxicity"},
      {"measurement": "cytotoxicity (cell culture viability)", "setting": "HTB-38 cells", "result": "no cytotoxicity"},
      {"measurement": "inhibition of interaction between Galectin 1 and integrin aBV6", "setting": "[6]", "result": "significantly inhibited"}
    ]},
    {"smiles": "OC[C@H]1O[C@@H](S[C@@H]2O[C@H](CO)[C@H](O)[C@H](n3cc(-c4cccc(F)c4)nn3)[C@H]2O)[C@H](O)[C@@H](n2cc(-c3cccc(F)c3)nn2)[C@H]1O", "note": "[TD-139, beta-D-Galactopyranoside, 3-deoxy-3-(4-(3-fluorophenyl)-1H-1,2,3-triazol-1-yl)-beta-D-galactopyranosyl 3-deoxy-3-(4-(3-fluorophenyl)-1H-1,2,3-triazol-1-yl)-1-thio-]", "values": [
      {"measurement": "binding to galectin 3", "setting": "Galectin-3 [7]", "result": "reported to bind to galectin 3"},
      {"measurement": "efficacy in mouse model of lung fibrosis", "setting": "[8]", "result": "effective"}
    ]},
    {"smiles": "OC[C@H]1O[C@@H]([Se]Cc2ccc(F)c(F)c2)[C@H](O)[C@@H](n2cc(-c3cccc(F)c3)nn2)[C@H]1O", "note": "[G-656]", "values": [
      {"measurement": "inhibition of the interaction of gal-3 with integrin", "setting": "[9]", "result": "significantly inhibit"}
    ]},
    {"smiles": "OC[C@H]1O[C@@H](O[C@H]2[C@H](O)[C@@H](O)C(O)O[C@@H]2CO)[C@H](O)[C@@H](O)[C@H]1O", "note": "(stereo partly shown) [Lactose, reference compound]", "values": [
      {"measurement": "galectin-3 expression", "setting": "Galectin-3 [1]", "result": "would have effect (at relatively high concentrations)"}
    ]},
    {"smiles": "OCC1OC([Se][Se]C2OC(CO)C(O)C(n3cc(-c4cccc(F)c4)nn3)C2O)C(O)C(n2cc(-c3cccc(F)c3)nn2)C1O", "note": "(stereo not shown) [G-626]", "values": [
      {"measurement": "IC50", "setting": "Galectin-3 [2]", "result": 1160, "unit": "nM"},
      {"measurement": "secretion of MCP-1", "setting": "MCP-1", "result": "inhibitory effect on the inflammatory stage by reducing the secretion of MCP-1"},
      {"measurement": "IC50", "setting": "Galectin-3 [4]", "result": 5290, "unit": "nM"},
      {"measurement": "inhibition of Galectin-3 CRD specific fluorescent-ligand", "setting": "Galectin-3 [4]", "result": "showed an inhibitory activity"}
    ]},
    {"smiles": "O=C(C[Se][C@@H]1O[C@H](CO)[C@H](O)[C@H](n2cc(-c3cccc(F)c3)nn2)[C@H]1O)c1ccc(F)c(F)c1", "note": "[G-662]", "values": [
      {"measurement": "inhibition of the interaction of gal-3 with integrin", "setting": "[9]", "result": "significantly inhibit"},
      {"measurement": "inhibition of Galectin-3 CRD specific fluorescent-ligand", "setting": "Galectin-3 [4]", "result": "shown to inhibit the Gal-3 binding"}
    ]}
  ]
}
